The source of these data is US12565490B2, “Inhibitors of Receptor Interacting Protein Kinase I for the treatment of disease” (Board of Regents, The University of Texas System, priority 2020, dated 2026).

Some results are limits rather than exact numbers.

The experiment relates to human monocytic cell line U937. Description: Human U937 cellular necroptosis assay. The note with it: U-937; U937 cells stimulated with 25 ng/mL human TNFalpha and 25 μM z-VAD-FMK; 22 hr; viability by Cell Titer-Glo 2.0; read-out: hU937 IC50. The format is cell-based. Here is the method: Human U937 Cellular Necroptosis Assay
The human monocytic cell line U937 (CRL-1593.2) may be purchased from ATCC. The cells are routinely maintained in RPMI-1640 Medium (Gibco, Catalog #11875-093) supplemented with 10% heat inactivated fetal bovine serum (Gibco, Catalog #16140-071), 100 units/mL penicillin and 100 μg/mL streptomycin (Gibco, Catalog #15140-122), in a humidified incubator (37° C., 5% CO2). For the assay, cells are resuspended in RPMI-1640 phenol red free Media (Gibco, Catalog #11835-030) supplemented with 10% fetal bovine serum (Sigma, Catalog #F2442), 100 units/mL penicillin and 100 ug/mL streptomycin. Cells are stimulated with 25 ng/mL human TNFalpha (Cell Sciences, Catalog #CSI15659B) and 25 μM z-VAD-FMK (R&D Systems, Catalog #FMK001) followed by seeding 5000 cells per well in a volume of 40 μL to a white, CulturPlate-384 (Perkin Elmer, Catalog #6007680). Stock solutions of the test compounds are prepared in 100% DMSO (Sigma, Catalog #D2650) and serially diluted 1:3 using 100% DMSO. Compounds are additionally diluted 1:40 in assay medium, and 10 μL/well was transferred to the plate. Following the compound addition, the plate is incubated at 37° C. and 5% CO2 for 22 hr. After 22 hr, viability is assessed with the addition of 20 μL of Cell Titer-Glo 2.0 (Promega, Catalog #G9243). The tissue culture plate is shaken on an orbital shaker at 300 RPM for 15 minutes at room temperature in the dark. Luminescence is measured using a PerkinElmer Envision™ plate reader. IC50 values are calculated using a four-parameter logistic curve fit using Genedata Screener software. Compounds disclosed herein are expected to have activity in this assay.
In general terms: Cellular ATP, detected with luciferase, serves as a proxy for viable cell number.
For orientation: IC50 means the concentration needed to halve the response being measured. Turning to `Cc1ccc(-c2nc(C(=O)N[C@H]3COc4cc(C#N)ccc4N(C)C3=O)ncc2C)c(F)c1` [Example 30, (S)-N-(8-cyano-5-methyl-4-oxo-2,3,4,5-tetrahydro-benzo[b][1,4]oxazepin-3-yl)-4-(2-fluoro-4-methylphenyl)-5-methylpyrimidine-2-carboxamide], the IC50 turned out to be 32.3 nM.
The same measure for `Cc1cnc(C(=O)N[C@H]2COc3cc(C#N)ccc3N(C)C2=O)nc1N1CCN(C)CC1` [Example 31, (S)-N-(8-cyano-5-methyl-4-oxo-2,3,4,5-tetrahydro-benzo[b][1,4]oxazepin-3-yl)-5-methyl-4-(4-methylpiperazin-1-yl)pyrimidine-2-carboxamide]: not below 10000 nM; for `Cc1cnc(C(=O)N[C@H]2COc3cc(C#N)ccc3N(C)C2=O)nc1N1CC(F)(F)C1` [Example 32, (S)-N-(8-cyano-5-methyl-4-oxo-2,3,4,5-tetrahydro-benzo[b][1,4]oxazepin-3-yl)-4-(3,3-difluoroazetidin-1-yl)-5-methylpyrimidine-2-carboxamide]: 1120 nM.
Then `Cc1ccc(C(=O)N[C@H]2COc3cc(C#N)ccc3N(C)C2=O)nc1Br` [Example 33, (S)-6-bromo-N-(8-cyano-5-methyl-4-oxo-2,3,4,5-tetrahydro-benzo[b][1,4]oxazepin-3-yl)-5-methylpicolinamide], with not below 10000 nM; and `Cc1ccc(C(=O)Nc2cccc(Cl)c2F)nc1-c1ccccc1` [Example 34, N-(3-chloro-2-fluorophenyl)-5-methyl-6-phenylpicolinamide], with not below 10000 nM.
Then `Cc1ccc(C(=O)Nc2cccc(Cl)c2F)nc1-c1cc(F)ccc1F` [Example 35, N-(3-chloro-2-fluorophenyl)-6-(2,5-difluorophenyl)-5-methylpicolinamide], with not below 10000 nM.
Consider `Cc1ccc(C(=O)N[C@H]2COc3cc(C#N)ccc3N(C)C2=O)nc1-c1ccc(F)cc1` [Example 36, (S)-N-(8-cyano-5-methyl-4-oxo-2,3,4,5-tetrahydro-benzo[b][1,4]oxazepin-3-yl)-6-(4-fluorophenyl)-5-methyl-picolinamide], for which the IC50 is 260 nM.
The same measure for `CN1C(=O)[C@@H](NC(=O)c2ccc(Cl)c(-c3ccc(F)cc3)n2)COc2cc(C#N)ccc21` [Example 37, (S)-5-chloro-N-(8-cyano-5-methyl-4-oxo-2,3,4,5-tetrahydro-benzo[b][1,4]oxazepin-3-yl)-6-(4-fluorophenyl)picolinamide]: 1560 nM; for `Cc1cnc(C(=O)N[C@H]2COc3cc(C#N)ccc3N(C)C2=O)nc1-c1ccc(F)cc1F` [Example 38, (S)-N-(8-cyano-5-methyl-4-oxo-2,3,4,5-tetrahydro-benzo[b][1,4]oxazepin-3-yl)-4-(2,4-difluorophenyl)-5-methyl-pyrimidine-2-carboxamide]: 18.9 nM; for `Cc1cnc(C(=O)N[C@H]2COc3ccc(CN4CCn5ncnc5C4)cc3N(C)C2=O)nc1-c1ccccc1` [Example 39, (S)-N-(7-((5,6-dihydro-[1,2,4]triazolo[1,5-a]pyrazin-7(8H)-yl)methyl)-5-methyl-4-oxo-2,3,4,5-tetrahydro-benzo[b][1,4]oxazepin-3-yl)-5-methyl-4-phenylpyrimidine-2-carboxamide]: 12.9 nM.
In the case of `Cc1ccc(C(=O)N[C@H]2COc3cc(C#N)ccc3N(C)C2=O)nc1-c1ccccc1` [Example 40, (S)-N-(8-cyano-5-methyl-4-oxo-2,3,4,5-tetrahydro-benzo[b][1,4]oxazepin-3-yl)-5-methyl-6-phenylpicolinamide], the IC50 came to 1570 nM.
The same measure for `Cc1ccc(C(=O)N[C@H]2COc3cc(C#N)ccc3N(C)C2=O)nc1-c1cc(F)ccc1F` [Example 41, (S)-N-(8-cyano-5-methyl-4-oxo-2,3,4,5-tetrahydro-benzo[b][1,4]oxazepin-3-yl)-6-(2,5-difluorophenyl)-5-methylpicolinamide]: 594 nM; for `Cc1cnc(C(=O)N[C@H]2COc3cc(C#N)ccc3N(C)C2=O)nc1-c1ccccc1F` [Example 42, (S)-N-(8-cyano-5-methyl-4-oxo-2,3,4,5-tetrahydro-benzo[b][1,4]oxazepin-3-yl)-4-(2-fluorophenyl)-5-methylpyrimidine-2-carboxamide]: 19.4 nM; for `Cc1cnc(C(=O)N[C@H]2COc3cc(C#N)ccc3N(C)C2=O)nc1C1CCCOC1` (stereo partly drawn) [Example 43, N-((S)-8-cyano-5-methyl-4-oxo-2,3,4,5-tetrahydro-benzo[b][1,4]oxazepin-3-yl)-5-methyl-4-(tetrahydro-2H-pyran-3-yl)pyrimidine-2-carboxamide]: 154 nM.
`Cc1cnc(C(=O)N[C@H]2COc3cc(C#N)ccc3N(C)C2=O)nc1N1CC2CCC1C2` (stereo partly drawn) [Example 44, 4-(2-azabicyclo[2.2.1]heptan-2-yl)-N-((S)-8-cyano-5-methyl-4-oxo-2,3,4,5-tetrahydro-benzo[b][1,4]oxazepin-3-yl)-5-methylpyrimidine-2-carboxamide]: the IC50 was determined as 789 nM.
Then `Cc1cnc(C(=O)N[C@H]2COc3cccnc3N(C)C2=O)nc1-c1ccccc1F` [Example 45, (S)-4-(2-fluorophenyl)-5-methyl-N-(5-methyl-4-oxo-2,3,4,5-tetrahydropyrido[3,2-b][1,4]oxazepin-3-yl)pyrimidine-2-carboxamide], with 10 nM.
The same measure for `CN1C(=O)[C@@H](NC(=O)c2ncc(Cl)c(-c3ccc(F)cc3F)n2)COc2ccccc21` [Example 46, (S)-5-chloro-4-(2,4-difluorophenyl)-N-(5-methyl-4-oxo-2,3,4,5-tetrahydrobenzo[b]-[1,4]oxazepin-3-yl)pyrimidine-2-carboxamide]: 11.8 nM.
Take `CN1C(=O)[C@@H](NC(=O)c2ncc(Cl)c(-c3ccccc3F)n2)COc2cccnc21` [Example 47, (S)-5-chloro-4-(2-fluorophenyl)-N-(5-methyl-4-oxo-2,3,4,5-tetrahydro-pyrido[3,2-b][1,4]oxazepin-3-yl)pyrimidine-2-carboxamide]: the IC50 amounted to 29.8 nM.
Then `CN1C(=O)[C@@H](NC(=O)c2ncc(Cl)c(-c3cccc(F)c3)n2)COc2cccnc21` [Example 48, (S)-5-chloro-4-(3-fluorophenyl)-N-(5-methyl-4-oxo-2,3,4,5-tetrahydro-pyrido[3,2-b][1,4]oxazepin-3-yl)pyrimidine-2-carboxamide], with 13.2 nM; and `CN1C(=O)[C@@H](NC(=O)c2ncc(Cl)c(-c3ccc(F)cc3)n2)COc2cccnc21` [Example 49, (S)-5-chloro-4-(4-fluorophenyl)-N-(5-methyl-4-oxo-2,3,4,5-tetrahydro-pyrido[3,2-b][1,4]oxazepin-3-yl)pyrimidine-2-carboxamide], with 8.35 nM; and `CN1C(=O)[C@@H](NC(=O)c2ncc(Cl)c(-c3ccc(F)cc3F)n2)COc2cccnc21` [Example 50, (S)-5-chloro-4-(2,4-difluorophenyl)-N-(5-methyl-4-oxo-2,3,4,5-tetrahydro-pyrido[3,2-b][1,4]oxazepin-3-yl)pyrimidine-2-carboxamide], with 9.29 nM.
For the molecule `CN1C(=O)[C@@H](NC(=O)c2ncc(Cl)c(-c3cc(F)ccc3F)n2)COc2cccnc21` [Example 51, (S)-5-chloro-4-(2,5-difluorophenyl)-N-(5-methyl-4-oxo-2,3,4,5-tetrahydro-pyrido[3,2-b][1,4]oxazepin-3-yl)pyrimidine-2-carboxamide], the IC50 turned out to be 10.6 nM.
Then `CN1C(=O)[C@@H](NC(=O)c2ncc(Cl)c(-c3ccc(Cl)cc3)n2)COc2cccnc21` [Example 52, (S)-5-chloro-4-(4-chlorophenyl)-N-(5-methyl-4-oxo-2,3,4,5-tetrahydro-pyrido[3,2-b][1,4]oxazepin-3-yl)pyrimidine-2-carboxamide], with 12 nM.
Then `Cc1ccc(-c2nc(C(=O)N[C@H]3COc4cccnc4N(C)C3=O)ncc2Cl)c(F)c1` [Example 53, (S)-5-chloro-4-(2-fluoro-4-methylphenyl)-N-(5-methyl-4-oxo-2,3,4,5-tetrahydro-pyrido[3,2-b][1,4]oxazepin-3-yl)pyrimidine-2-carboxamide], with 11.7 nM; and `Cc1ccc(-c2nc(C(=O)N[C@H]3COc4cccnc4N(C)C3=O)ncc2Cl)cc1F` [Example 54, (S)-5-chloro-4-(3-fluoro-4-methylphenyl)-N-(5-methyl-4-oxo-2,3,4,5-tetrahydro-pyrido[3,2-b][1,4]oxazepin-3-yl)pyrimidine-2-carboxamide], with 13.6 nM; and `C[C@H]1Oc2cccnc2N(C)C(=O)[C@H]1NC(=O)c1ncc(Cl)c(-c2ccc(F)cc2F)n1` [Example 55, 5-chloro-4-(2,4-difluorophenyl)-N-((2R,3S)-2,5-dimethyl-4-oxo-2,3,4,5-tetrahydropyrido[3,2-b]-[1,4]oxazepin-3-yl)pyrimidine-2-carboxamide], with 34.4 nM.
